Experimental data taken from PubChem BioAssay AID328 (DTP/NCI, 2004).
Where “and” joins values, the source holds several entries; their conditions need not be identical. Identical values can stand only once. Inconclusive results and toxic doses are left out. The calls were made as follows: active = survival T/C of 150% or more; inactive = T/C below 125% in these data.

System: BDF1 mice, P388 leukemia ip, median survival T/C
Test: NCI In Vivo Anticancer Drug Screen. Data for tumor model P388 Leukemia (intraperitoneal) in B6D2F1 (BDF1) mice
Conditions: endpoint: median survival time, higher = longer survival
How it was run: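 Transplantable tumour in mice; compound vs vehicle dosing; survival scored; ratio of treated to control reported.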

[1] = dose: 100.0 mg/kg/injection, schedule: Q04DX003 (ip), vehicle: saline sonified
[2] = dose: 200.0 mg/kg/injection, schedule: Q04DX003 (ip), vehicle: saline sonified
[3] = dose: 100.0 mg/kg/injection, schedule: Q04DX003 (ip), vehicle: saline with Tween-80
[4] = dose: 200.0 mg/kg/injection, schedule: Q04DX003 (ip), vehicle: saline with Tween-80
[5] = dose: 50.0 mg/kg/injection, schedule: Q01DX009 (ip), vehicle: saline
[6] = dose: 100.0 mg/kg/injection, schedule: Q01DX009 (ip), vehicle: saline
[7] = dose: 25.0 mg/kg/injection, schedule: Q01DX009 (ip), vehicle: saline with Tween-80
[8] = dose: 50.0 mg/kg/injection, schedule: Q01DX009 (ip), vehicle: saline with Tween-80
[9] = dose: 100.0 mg/kg/injection, schedule: Q01DX009 (ip), vehicle: saline with Tween-80
[10] = dose: 200.0 mg/kg/injection, schedule: Q01DX009 (ip), vehicle: saline with Tween-80
[11] = dose: 400.0 mg/kg/injection, schedule: Q01DX009 (ip), vehicle: saline with Tween-80
[12] = dose: 400.0 mg/kg/injection, schedule: Q04DX003 (ip), vehicle: saline with Tween-80

Measured: T/C

CCOC(=S)SCC(=O)Nc1ccc(Br)cc1
inactive: dose: 15.0 mg/kg/injection, schedule: Q01DX009 (ip), vehicle: saline with Tween-80 93 % of control | dose: 30.0 mg/kg/injection, schedule: Q01DX009 (ip), vehicle: saline with Tween-80 96 % of control | dose: 60.0 mg/kg/injection, schedule: Q01DX009 (ip), vehicle: saline with Tween-80 98 % of control

CCN(CC)CCCC(C)NC(=O)c1ccc2c(c1)C(=O)c1ccccc1C2=O (configuration not stated)
inactive: dose: 50.0 mg/kg/injection, schedule: Q01DX005 (ip), vehicle: saline 98 % of control | dose: 100.0 mg/kg/injection, schedule: Q01DX005 (ip), vehicle: saline 89 % of control

CC1(C)N=C(N)N=C(N)N1NC(=O)c1cccc(Cl)c1
inactive: dose: 50.0 mg/kg/injection, schedule: Q04DX003 (ip), vehicle: saline sonified 109 % of control | [1] 109 % of control | [2] 109 % of control

CCC(=O)/C=C/C1=C(C)CCCC1(C)C
inactive: dose: 50.0 mg/kg/injection, schedule: Q04DX003 (ip), vehicle: saline with Tween-80 104 % of control | [3] 104 % of control | [4] 95 % of control

CS(=O)(=O)OCCC#N
inactive: dose: 25.0 mg/kg/injection, schedule: Q01DX009 (ip), vehicle: saline 113 % of control | [5] 91 % of control and 104 % of control | [6] 113 % of control | dose: 100.0 mg/kg/injection, schedule: Q04DX003 (ip), vehicle: alcohol 110 % of control | dose: 150.0 mg/kg/injection, schedule: Q01DX009 (ip), vehicle: saline 95 % of control

CO[C@@H]1[C@@H](OC2OC(C)C(OC3CC(C)(O)C(OC(=O)CC(C)C)C(C)O3)C(N(C)C)C2O)[C@@H](CC=O)C[C@@H](C)C(=O)/C=C/C2O[C@H]2C[C@@H](C)OC(=O)C[C@H]1OC(C)=O (some centres not stated)
inactive: dose: 50.0 mg/kg/injection, schedule: Q#A X020 (ip), vehicle: water 109 % of control | dose: 100.0 mg/kg/injection, schedule: Q01DX001 (ip), vehicle: water 110 % of control | dose: 100.0 mg/kg/injection, schedule: Q01DX010 (ip), vehicle: water 118 % of control | dose: 100.0 mg/kg/injection, schedule: Q#A X020 (ip), vehicle: water 118 % of control | dose: 150.0 mg/kg/injection, schedule: Q#A X020 (ip), vehicle: water 118 % of control | dose: 200.0 mg/kg/injection, schedule: Q01DX001 (ip), vehicle: water 100 % of control | dose: 200.0 mg/kg/injection, schedule: Q01DX010 (ip), vehicle: water 109 % of control | dose: 200.0 mg/kg/injection, schedule: Q#A X020 (ip), vehicle: water 118 % of control | dose: 300.0 mg/kg/injection, schedule: Q01DX010 (ip), vehicle: water 118 % of control | dose: 400.0 mg/kg/injection, schedule: Q01DX001 (ip), vehicle: water 90 % of control | dose: 600.0 mg/kg/injection, schedule: Q01DX001 (ip), vehicle: water 100 % of control | dose: 1000.0 mg/kg/injection, schedule: Q01DX010 (oral), vehicle: water 86 % of control | dose: 1500.0 mg/kg/injection, schedule: Q01DX010 (oral), vehicle: water 100 % of control

CS(=O)(=O)OCCCNCCCOS(C)(=O)=O
inactive: dose: 80.0 mg/kg/injection, schedule: Q01DX010 (ip), vehicle: saline 94 % of control
active: dose: 10.0 mg/kg/injection, schedule: Q01DX009 (ip), vehicle: saline 228 % of control | dose: 10.0 mg/kg/injection, schedule: Q01DX010 (ip), vehicle: saline 255 % of control | dose: 12.0 mg/kg/injection, schedule: Q04DX003 (ip), vehicle: saline 186 % of control | dose: 19.0 mg/kg/injection, schedule: Q04DX003 (ip), vehicle: saline 204 % of control | dose: 20.0 mg/kg/injection, schedule: Q01DX009 (ip), vehicle: saline 255 % of control | dose: 20.0 mg/kg/injection, schedule: Q01DX010 (ip), vehicle: saline 300 % of control | dose: 29.0 mg/kg/injection, schedule: Q04DX003 (ip), vehicle: saline 209 % of control | dose: 40.0 mg/kg/injection, schedule: Q01DX009 (ip), vehicle: saline 282 % of control | dose: 40.0 mg/kg/injection, schedule: Q01DX010 (ip), vehicle: saline 300 % of control | dose: 45.0 mg/kg/injection, schedule: Q04DX003 (ip), vehicle: saline 240 % of control | dose: 66.0 mg/kg/injection, schedule: Q04DX003 (ip), vehicle: saline 245 % of control | dose: 150.0 mg/kg/injection, schedule: Q04DX003 (ip), vehicle: saline 300 % of control

O=C1N=C(Oc2ccccc2)SC1=O
inactive: [7] 103 % of control and 104 % of control | dose: 50.0 mg/kg/injection, schedule: Q01DX009 (ip), vehicle: saline + alcohol 113 % of control | [8] 95 % of control and 108 % of control | dose: 100.0 mg/kg/injection, schedule: Q01DX009 (ip), vehicle: saline + alcohol 120 % of control | [9] 117 % of control and 123 % of control | dose: 200.0 mg/kg/injection, schedule: Q01DX009 (ip), vehicle: saline + alcohol 113 % of control | [10] 117 % of control and 121 % of control

COCC1CCSC1=O (configuration not stated)
inactive: dose: 100.0 mg/kg/injection, schedule: Q01DX001 (ip), vehicle: saline with Tween-80 102 % of control | dose: 200.0 mg/kg/injection, schedule: Q01DX001 (ip), vehicle: saline with Tween-80 102 % of control | dose: 400.0 mg/kg/injection, schedule: Q01DX001 (ip), vehicle: saline with Tween-80 93 % of control

C=CCN1CSC(=S)N(CC=C)C1
inactive: [7] 100 % of control | [8] 87 % of control

CC(C(=O)c1cc(O)c(O)cc1C(O)(C(F)(F)F)C(F)(F)F)C(O)(C(F)(F)F)C(F)(F)F (configuration not stated)
inactive: [9] 100 % of control | [10] 100 % of control | [11] 95 % of control

O=C1NC(=O)C2(CCc3ccccc3C2)N1 (configuration not stated)
inactive: [7] 97 % of control | [8] 99 % of control and 107 % of control | [9] 96 % of control and 104 % of control | [10] 96 % of control and 97 % of control | [11] 92 % of control

COc1ccc(N=C/C=C/c2ccccc2)cc1
inactive: [3] 104 % of control | [4] 100 % of control | [12] 109 % of control

CCn1c(Cl)c(/C=N/Nc2ccc([N+](=O)[O-])cc2[N+](=O)[O-])c2ccccc21
inactive: dose: 100.0 mg/kg/injection, schedule: Q04DX002 (ip), vehicle: Klucel (hydroxypropylcellulose) (HPC) 92 % of control | dose: 200.0 mg/kg/injection, schedule: Q04DX002 (ip), vehicle: Klucel (hydroxypropylcellulose) (HPC) 92 % of control | dose: 400.0 mg/kg/injection, schedule: Q04DX002 (ip), vehicle: Klucel (hydroxypropylcellulose) (HPC) 88 % of control

CN1CCN(C2=Nc3ccccc3Cc3ccccc32)CC1
inactive: dose: 12.5 mg/kg/injection, schedule: Q01DX009 (ip), vehicle: saline with Tween-80 103 % of control | [7] 102 % of control | [8] 105 % of control and 108 % of control

CC(C)(N)CNC(C)(C)CO
inactive: [5] 95 % of control | [6] 111 % of control | dose: 200.0 mg/kg/injection, schedule: Q01DX009 (ip), vehicle: saline 92 % of control

CC1OC(OC2C(CO)OC(O[C@H]3CC[C@@]4(C)C(=CC[C@H]5[C@@H]6C[C@@H]7O[C@@]8(CC[C@H](C)CN8)[C@@H](C)[C@@H]7[C@@]6(C)CC[C@@H]54)C3)C(OC3OC(C)C(O)C(O)C3O)C2O)C(O)C(O)C1O (some centres not stated)
inactive: dose: 2.5 mg/kg/injection, schedule: Q01DX009 (ip), vehicle: water 95 % of control and 100 % of control | dose: 5.0 mg/kg/injection, schedule: Q01DX009 (ip), vehicle: water 109 % of control | dose: 10.0 mg/kg/injection, schedule: Q01DX009 (ip), vehicle: water 100 % of control and 104 % of control | dose: 20.0 mg/kg/injection, schedule: Q01DX009 (ip), vehicle: water 95 % of control and 100 % of control

Cc1cccc(Cl)c1NC(=O)CCCl
inactive: [3] 90 % of control | [4] 90 % of control | [12] 109 % of control

O=C1C=CC(=O)C(c2ccccc2)=C1
inactive: dose: 12.5 mg/kg/injection, schedule: Q01DX001 (ip), vehicle: Klucel (hydroxypropylcellulose) (HPC) 110 % of control | dose: 25.0 mg/kg/injection, schedule: Q01DX001 (ip), vehicle: Klucel (hydroxypropylcellulose) (HPC) 100 % of control | dose: 50.0 mg/kg/injection, schedule: Q01DX001 (ip), vehicle: Klucel (hydroxypropylcellulose) (HPC) 100 % of control

CC(=O)/C=C/c1ccc([N+](=O)[O-])cc1
inactive: [1] 90 % of control | [2] 90 % of control | dose: 400.0 mg/kg/injection, schedule: Q04DX003 (ip), vehicle: saline sonified 100 % of control
